Experimental data as given in paper PMC6234229, “The role of loops B and C in determining the potentiation of GABAA receptors by midazolam” (Pharmacology Research & Perspectives, 2018).
“And” between values parts separate entries of the source, which are not always exact repeats. Identical values can stand only once.

Assays:
Experiment in all cases: Midazolam potentiation of EC10 GABA currents, whole-cell patch clamp, HEK293T
Format in all cases: cell-based
α6β2γ2 GABAA receptor = target: T1, α6β2γ2 GABAA receptor (Homo sapiens, UniProt P18507+P47870+Q16445); settings: for Midazolam potentiation (%): α6β2γ2
T1 construct: expressed in transfected cells; host or cells: HEK293T
Text: (§1) Human (Homo sapiens) GABAA subunits (α1‐6, β2, γ2s) were subcloned into pcDNA3.1+ vectors with a cytomegalovirus (CMV) promoter. The hβ2 and hα3 sequences were humanized rat (Rattus norvegicus) cDNA with amino acid substitutions made to match the human protein sequence. The α1‐3, α5, β2, and γ2s subunits were a generous gift from Neil L. Harrison (Columbia University Medical Center, NY). The α4 subunit was obtained from GenScript (Piscataway, NJ), and the α6 subunit was a generous gift from Robert L. McDonald (Vanderbilt University, TN). All point mutations (listed in Figure 1C) were introduced using the QuikChange Lightening site‐directed mutagenesis kit (Agilent Technologies, Santa Clara, CA) according to the manufacturer's instructions and were confirmed by sequencing (Eurofins MWG Operon, Louisville, KY).
(§2) Human embryonic kidney cells containing the SV40 T‐antigen (HEK293T) were acquired from American Type Culture Collection (ATCC®, Manassas, VA), catalogue number, CRL3216. HEK293T cells were maintained at 37°C and 5% CO2 in Eagle Minimum Essential Medium (MEM) supplemented with 5% fetal bovine serum (Atlanta Biologicals Inc., Flowery Branch, GA), 40 μM L‐glutamine, 100 U/mL penicillin and 0.1 mM streptomycin. Cells were passaged regularly when they reached 70% confluency using trypsin. Cells were not passaged more than 22 times. New cells were revived from frozen stocks at passage 2‐4. Cells used for in vitro electrophysiology experiments were grown on poly‐D‐lysine‐coated glass coverslips (No.2, VWR, Radnor, PA) and transfected with X‐tremeGENE (Roche Diagnostics, Indianapolis, IN) with the desired receptor subunit cDNAs at a 1:1:1 ratio to express αxβ2γ2s receptors (2 μg total cDNA) and with 0.5 μg green fluorescent protein (GFP) as an expression marker. The γ2s incorporation into receptors was tested with zinc inhibition assays regularly.24 Patch clamp experiments were performed on cells at 24‐72 hours post‐transfection. All experiments were performed at 22°C. Experiments consisted of at least five cells recorded per day from at least two transfections across 3‐4 days to control for cell health and transfection efficiency. At least three cells expressing wild‐type receptors were recorded on days that mutant receptors were tested to provide a time‐matched expression control. All reagents were purchased from Sigma‐Aldrich (St. Louis, MO) unless otherwise stated.
(§3) Extracellular solution contained 161 mM NaCl, 3 mM KCl, 1 mM MgCl2, 1.5 mM CaCl2, 10 mM HEPES, and 6 mM D‐glucose, adjusted to pH 7.4 with NaOH (320‐330 mOsm). […] The perfusion system was controlled by protocols written in pClamp 9 (Molecular Devices, LLC., Sunnyvale, CA). Whole‐cell currents were recorded at ‐60 mV, filtered at 100 Hz and sampled at 200 Hz with a MultiClamp 700B amplifier (Molecular Devices, LLC) and DigiData 1322A (Molecular Devices, LLC) digitizer. […] Cells were recorded with the midazolam protocol no more than two times to avoid desensitization and incomplete washout or irreversible modulation.
(§4) Recordings were analyzed using MATLAB (Math Works, Inc., Natick, MA). […] The maximum peak current, EC50 and Hill coefficient were estimated for assays from each cell. When Hill parameters are estimated from whole‐cell recordings, the changes in the parameters across receptor conditions can be ascribed to the following changes in receptor physiology. Changes in maximum current can be due to changes in the single‐channel conductance or the rate of desensitization. Changes in cell surface receptor expression can cause minor changes in maximum current, but are unlikely to occur in the time course of our experimental protocol. […] More often minor changes in the Hill coefficient are attributed to the altered homogeneity in the receptor population expressed by the HEK293T cell. For example, a shallower Hill coefficient could be caused by a shift in the population of receptors from mostly αβγ receptors to a combination of both αβ and αβγ receptors.

[1] = target: T2, α1(S206I)β2γ2 GABAA receptor (Homo sapiens, UniProt P14867+P18507+P47870, S233I)
T2 construct: expressed in transfected cells; host or cells: HEK293T
Text: as §1, §2, §3, §4

α2β2γ2 GABAA receptor = target: T3, α2β2γ2 GABAA receptor (Homo sapiens, UniProt P18507+P47869+P47870)
T3 construct: expressed in transfected cells; host or cells: HEK293T
Text: as §1, §2, §3, §4

[2] = target: T4, α5(H105R)β2γ2 GABAA receptor (Homo sapiens, UniProt P18507+P31644+P47870, H136R)
T4 construct: expressed in transfected cells; host or cells: HEK293T
Text: as §1, §2, §3, §4

[3] = target: T5, α5(S209I)β2γ2 GABAA receptor (Homo sapiens, UniProt P18507+P31644+P47870, S240I)
T5 construct: expressed in transfected cells; host or cells: HEK293T
Text: as §1, §2, §3, §4

[4] = target: T6, α5(P166T)β2γ2 GABAA receptor (Homo sapiens, UniProt P18507+P31644+P47870, P197T)
T6 construct: expressed in transfected cells; host or cells: HEK293T
Text: as §1, §2, §3, §4

α3β2γ2 GABAA receptor = target: T7, α3β2γ2 GABAA receptor (Homo sapiens, UniProt P18507+P34903+P47870)
T7 construct: expressed in transfected cells; host or cells: HEK293T
Text: as §1, §2, §3, §4

T4 sequence (P31644 32-462 H136R): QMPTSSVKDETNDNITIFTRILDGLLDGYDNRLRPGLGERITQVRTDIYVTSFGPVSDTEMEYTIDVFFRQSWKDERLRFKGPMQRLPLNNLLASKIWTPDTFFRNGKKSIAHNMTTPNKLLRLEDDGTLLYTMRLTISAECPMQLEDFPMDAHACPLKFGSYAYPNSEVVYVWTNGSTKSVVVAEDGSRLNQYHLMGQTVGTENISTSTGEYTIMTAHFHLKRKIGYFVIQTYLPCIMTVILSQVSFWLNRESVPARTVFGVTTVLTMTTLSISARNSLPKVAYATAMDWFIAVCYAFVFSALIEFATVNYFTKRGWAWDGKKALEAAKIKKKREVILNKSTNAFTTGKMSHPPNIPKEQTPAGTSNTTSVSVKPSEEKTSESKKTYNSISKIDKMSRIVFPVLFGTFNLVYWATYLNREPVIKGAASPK
T4 sequence (P47870 26-474 isoform P47870-1 limits assumed, stated change not applied): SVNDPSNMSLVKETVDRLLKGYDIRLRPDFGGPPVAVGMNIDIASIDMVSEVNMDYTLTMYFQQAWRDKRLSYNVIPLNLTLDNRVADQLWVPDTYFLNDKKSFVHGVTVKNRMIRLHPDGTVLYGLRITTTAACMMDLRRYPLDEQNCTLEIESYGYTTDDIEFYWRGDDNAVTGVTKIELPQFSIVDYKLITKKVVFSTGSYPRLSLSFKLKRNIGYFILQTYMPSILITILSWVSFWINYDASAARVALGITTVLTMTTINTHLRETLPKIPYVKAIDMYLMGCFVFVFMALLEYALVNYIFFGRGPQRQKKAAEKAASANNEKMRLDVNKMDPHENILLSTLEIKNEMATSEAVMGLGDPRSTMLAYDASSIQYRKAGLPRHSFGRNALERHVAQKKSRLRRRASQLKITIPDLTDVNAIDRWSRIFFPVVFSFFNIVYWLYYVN
T4 sequence (P18507 40-467 isoform P18507-1 limits assumed, stated change not applied): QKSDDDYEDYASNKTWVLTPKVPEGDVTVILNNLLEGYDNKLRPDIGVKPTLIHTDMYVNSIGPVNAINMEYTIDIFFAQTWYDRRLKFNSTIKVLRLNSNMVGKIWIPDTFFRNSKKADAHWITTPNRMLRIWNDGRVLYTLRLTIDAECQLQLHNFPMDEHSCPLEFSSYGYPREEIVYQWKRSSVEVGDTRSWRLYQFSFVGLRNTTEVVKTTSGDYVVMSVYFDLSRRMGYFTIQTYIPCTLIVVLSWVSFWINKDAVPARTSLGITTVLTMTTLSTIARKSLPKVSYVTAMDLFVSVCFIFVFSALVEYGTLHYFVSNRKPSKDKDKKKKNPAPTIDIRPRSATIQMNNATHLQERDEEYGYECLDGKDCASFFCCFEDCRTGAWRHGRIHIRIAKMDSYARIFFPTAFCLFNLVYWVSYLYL
T7 sequence (P34903 29-492): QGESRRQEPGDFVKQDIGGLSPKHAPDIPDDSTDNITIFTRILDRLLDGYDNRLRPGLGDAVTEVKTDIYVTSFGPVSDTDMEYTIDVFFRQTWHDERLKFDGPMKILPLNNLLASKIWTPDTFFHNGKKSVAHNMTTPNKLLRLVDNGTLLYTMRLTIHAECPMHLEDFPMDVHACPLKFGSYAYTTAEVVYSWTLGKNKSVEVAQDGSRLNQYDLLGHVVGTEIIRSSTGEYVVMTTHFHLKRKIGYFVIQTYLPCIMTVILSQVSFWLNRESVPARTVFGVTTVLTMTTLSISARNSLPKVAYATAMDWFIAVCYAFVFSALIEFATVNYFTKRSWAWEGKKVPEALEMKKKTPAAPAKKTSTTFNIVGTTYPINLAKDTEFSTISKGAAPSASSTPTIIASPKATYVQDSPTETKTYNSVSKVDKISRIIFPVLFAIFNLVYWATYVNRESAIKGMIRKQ
T7 sequence (P47870 25-512 limits assumed): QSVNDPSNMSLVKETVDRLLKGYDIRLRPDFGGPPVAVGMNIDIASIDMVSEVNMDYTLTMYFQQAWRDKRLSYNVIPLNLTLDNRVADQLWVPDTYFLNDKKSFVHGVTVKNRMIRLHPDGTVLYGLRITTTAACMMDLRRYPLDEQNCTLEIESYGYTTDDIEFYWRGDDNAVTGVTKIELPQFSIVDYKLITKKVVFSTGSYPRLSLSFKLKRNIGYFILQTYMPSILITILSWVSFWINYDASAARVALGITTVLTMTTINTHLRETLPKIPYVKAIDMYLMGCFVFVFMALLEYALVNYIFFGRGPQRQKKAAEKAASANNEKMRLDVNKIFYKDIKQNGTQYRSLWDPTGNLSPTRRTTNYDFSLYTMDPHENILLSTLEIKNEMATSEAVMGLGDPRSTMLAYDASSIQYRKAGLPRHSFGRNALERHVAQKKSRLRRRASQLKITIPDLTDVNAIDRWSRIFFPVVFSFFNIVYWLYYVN
T7 sequence (P18507 40-467 isoform P18507-1 limits assumed): as the sequence (P18507 40-467 isoform P18507-1 limits assumed, stated change not applied) above
T5 sequence (P31644 32-462 S240I): as the sequence (P31644 32-462 H136R) above, with R105H, S209I counted along it
T5 sequence (P47870 26-474 isoform P47870-1 limits assumed, stated change not applied): as the sequence (P47870 26-474 isoform P47870-1 limits assumed, stated change not applied) above
T5 sequence (P18507 40-467 isoform P18507-1 limits assumed, stated change not applied): as the sequence (P18507 40-467 isoform P18507-1 limits assumed, stated change not applied) above

Cc1ncc2n1-c1ccc(Cl)cc1C(c1ccccc1F)=NC2 [midazolam]
Midazolam potentiation (%) (α6β2γ2 GABAA receptor; 10 nM MDZ + EC10 GABA): 14.66 ± 3.92% | Midazolam potentiation (%) (α6β2γ2 GABAA receptor; 50 nM MDZ + EC10 GABA): 14.55 ± 3.86% | Midazolam potentiation (%) (α6β2γ2 GABAA receptor; 100 nM MDZ + EC10 GABA): 14.58 ± 4.87% | Midazolam potentiation (%) (α6β2γ2 GABAA receptor; 500 nM MDZ + EC10 GABA): 11.15 ± 6.25% | Midazolam potentiation (%) (α6β2γ2 GABAA receptor; 1000 nM MDZ + EC10 GABA): 23.34 ± 4.23% | responsiveness to midazolam potentiation (α6β2γ2 GABAA receptor; wildtype α6β2γ2): no notable midazolam potentiation | EC50 [1]: 59.8 ± 4.11 nM | Midazolam potentiation (%) ([1]; 10 nM MDZ + EC10 GABA, α1(S206I)): 13.37 ± 5.70% | Midazolam potentiation (%) ([1]; 50 nM MDZ + EC10 GABA, α1(S206I)): 44.00 ± 10.96% | Midazolam potentiation (%) ([1]; 100 nM MDZ + EC10 GABA, α1(S206I)): 80.14 ± 17.04% | Midazolam potentiation (%) ([1]; 500 nM MDZ + EC10 GABA, α1(S206I)): 107.07 ± 22.95% | Midazolam potentiation (%) ([1]; 1000 nM MDZ + EC10 GABA, α1(S206I)): 108.21 ± 24.13% | Max potentiation (%) ([1]; α1(S206I), Hill fit, midazolam 10-1000 nM + EC10 GABA): 135.8 ± 23.8% and 135.8 ± 23.78 % | Hill coefficient ([1]; α1(S206I), midazolam Hill fit): 1.568 ± 0.199 | EC50 (α2β2γ2 GABAA receptor): 50.9 ± 5.05 nM | Midazolam potentiation (%) (α2β2γ2 GABAA receptor; 10 nM MDZ + EC10 GABA, α2β2γ2): 19.47 ± 4.19% | Midazolam potentiation (%) (α2β2γ2 GABAA receptor; 50 nM MDZ + EC10 GABA, α2β2γ2): 69.08 ± 17.73% | Midazolam potentiation (%) (α2β2γ2 GABAA receptor; 100 nM MDZ + EC10 GABA, α2β2γ2): 128.98 ± 36.14% | Midazolam potentiation (%) (α2β2γ2 GABAA receptor; 500 nM MDZ + EC10 GABA, α2β2γ2): 167.38 ± 49.89% | Midazolam potentiation (%) (α2β2γ2 GABAA receptor; 1000 nM MDZ + EC10 GABA, α2β2γ2): 165.35 ± 48.98% | Max potentiation (%) (α2β2γ2 GABAA receptor; α2β2γ2, Hill fit, midazolam 10-1000 nM + EC10 GABA): 169.6 ± 49.9% | Hill coefficient (α2β2γ2 GABAA receptor; α2β2γ2, midazolam Hill fit): 1.743 ± 0.133 | responsiveness to midazolam potentiation [2]: abolished the ability of receptors to respond to midazolam potentiation | Midazolam potentiation (%) ([2]; 10 nM MDZ + EC10 GABA): 8.59 ± 4.39% | Midazolam potentiation (%) ([2]; 50 nM MDZ + EC10 GABA): 7.73 ± 4.67% | Midazolam potentiation (%) ([2]; 100 nM MDZ + EC10 GABA): 8.00 ± 4.85% | Midazolam potentiation (%) ([2]; 500 nM MDZ + EC10 GABA): 5.65 ± 3.99% | Midazolam potentiation (%) ([2]; 1000 nM MDZ + EC10 GABA): 8.17 ± 4.66% | EC50 [3]: 65.4 ± 2.76 nM | Midazolam potentiation (%) ([3]; 10 nM MDZ + EC10 GABA, α5(S209I)): 15.95 ± 6.58% | Midazolam potentiation (%) ([3]; 50 nM MDZ + EC10 GABA, α5(S209I)): 62.43 ± 11.51% | Midazolam potentiation (%) ([3]; 100 nM MDZ + EC10 GABA, α5(S209I)): 127.16 ± 19.87% | Midazolam potentiation (%) ([3]; 500 nM MDZ + EC10 GABA, α5(S209I)): 168.94 ± 23.17% | Midazolam potentiation (%) ([3]; 1000 nM MDZ + EC10 GABA, α5(S209I)): 170.92 ± 25.92% | increase of maximum midazolam potentiation relative to wildtype ([3]; α5(S209I) vs α5β2γ2): approximately 63% | Max potentiation (%) ([3]; α5(S209I), Hill fit, midazolam 10-1000 nM + EC10 GABA): 175.1 ± 26.6% | Hill coefficient ([3]; α5(S209I), midazolam Hill fit): 2.232 ± 0.334 | EC50 [4]: 53.3 ± 5.54 nM | Midazolam potentiation (%) ([4]; 10 nM MDZ + EC10 GABA, α5(P166T)): 13.32 ± 1.68% | Midazolam potentiation (%) ([4]; 50 nM MDZ + EC10 GABA, α5(P166T)): 54.02 ± 5.66% | Midazolam potentiation (%) ([4]; 100 nM MDZ + EC10 GABA, α5(P166T)): 106.37 ± 15.09% | Midazolam potentiation (%) ([4]; 500 nM MDZ + EC10 GABA, α5(P166T)): 134.76 ± 21.59% | Midazolam potentiation (%) ([4]; 1000 nM MDZ + EC10 GABA, α5(P166T)): 141.51 ± 25.59% | Max potentiation (%) ([4]; α5(P166T), Hill fit, midazolam 10-1000 nM + EC10 GABA): 140.7 ± 23.7% | Hill coefficient ([4]; α5(P166T), midazolam Hill fit): 3.661 ± 1.897 | Midazolam potentiation (%) (α3β2γ2 GABAA receptor; 10 nM MDZ + EC10 GABA): 37.98 ± 5.40% | Midazolam potentiation (%) (α3β2γ2 GABAA receptor; 50 nM MDZ + EC10 GABA): 132.92 ± 12.09% | Midazolam potentiation (%) (α3β2γ2 GABAA receptor; 100 nM MDZ + EC10 GABA): 221.10 ± 19.12% | Midazolam potentiation (%) (α3β2γ2 GABAA receptor; 500 nM MDZ + EC10 GABA): 279.18 ± 24.71% | Midazolam potentiation (%) (α3β2γ2 GABAA receptor; 1000 nM MDZ + EC10 GABA): 281.17 ± 24.73% | EC50 (α3β2γ2 GABAA receptor; EC50 (nM), midazolam potentiation of EC10 GABA): 46.4 nM | Max potentiation (%) (α3β2γ2 GABAA receptor; Hill fit, midazolam 10-1000 nM + EC10 GABA): 267.8 ± 20.3% | Hill coefficient (α3β2γ2 GABAA receptor; midazolam Hill fit): 1.503 ± 0.117
